pIC50: −log10 of the molar value. Several values for one entry are separate records, joined by “and”; a condition that tells them apart may be missing. Equal values may be shown once. Square brackets hold non-standard residues; d marks the D form. Peptide text beside a SMILES is read from it.
Target: T1, Tau40 P301L protein (Homo sapiens, UniProt P10636, P618L)
T1 construct: His (N); made in house; host or cells: E. coli BL21
Experiment: Thioflavin T assay of Tau40 amyloid inhibition (Tau40 assay)
Type: biochemical
Conditions: Thioflavin T fluorescence, Tau40 P301L 2.5 μM, 10 μM heparin

T1 sequence (P10636 1-441 isoform P10636-8 P301L): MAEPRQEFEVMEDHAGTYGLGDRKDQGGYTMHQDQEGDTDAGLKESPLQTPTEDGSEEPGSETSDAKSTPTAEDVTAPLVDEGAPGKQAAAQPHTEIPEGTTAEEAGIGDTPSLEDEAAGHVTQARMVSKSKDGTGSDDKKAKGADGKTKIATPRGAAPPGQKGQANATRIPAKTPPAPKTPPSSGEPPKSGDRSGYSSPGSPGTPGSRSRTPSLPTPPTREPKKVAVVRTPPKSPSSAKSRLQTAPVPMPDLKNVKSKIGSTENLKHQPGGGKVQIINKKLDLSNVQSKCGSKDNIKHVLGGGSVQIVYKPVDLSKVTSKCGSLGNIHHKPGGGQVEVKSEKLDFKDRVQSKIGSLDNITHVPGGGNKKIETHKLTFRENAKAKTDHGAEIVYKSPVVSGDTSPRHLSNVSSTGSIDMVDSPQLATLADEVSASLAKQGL

- pIC50: 5.77 and 5.75
SMILES: CC[C@@H](C)[C@@H](NC(=O)[C@@H](Cc1c[nH]cn1)NC(=O)[C@@H](CC(C)C)NC(=O)[C@@H](CCCCN)NC(=O)[C@H](N)Cc1ccccc1)C(=O)N[C@H](CCCNC(=N)N)C(=O)N[C@H](Cc1c[nH]cn1)C(=O)N[C@H](Cc1c[nH]c2ccccc12)C(=O)O [compound 128] (H-[dF][dK][dL][dH][dI][dR][dH][dW]-OH; N-terminus and C-terminus assumed)

Source: patent US11453701B2, “Tau aggregation peptide inhibitors” (ADRX, INC., priority 2017, dated 2022)
